# Starred links: 1 amine or outer side, 2 acyl side, 3 side chain; linkers in the order of their positions; H or OH if unused. Non-standard residues stand in square brackets, D forms with d. Residues, ends and D or L forms follow the SMILES beside them. *: point of attachment. X2 = CCCCCCCCCCCCCCCCOC(=O)CC[C@H](N*)C(=O)OCCCCCCCCCCCCCCCC; X1 = CCCCCCCCCCCCCCOC(=O)CC[C@H](N*)C(=O)OCCCCCCCCCCCCCC; X3 = CCCCCCCCCCCCOC(=O)CC[C@H](N*)C(=O)OCCCCCCCCCCCC; Hyp = O=C(O)[C@@H]1C[C@@H](O)CN1; Suc = O=C(CCC(=O)[*:2])[*:1]
# Experiments:
# [1] = Circular dichroism spectroscopy; type: physicochemical; conditions: 25° C., 0.5 mM in H2O, λ=225 nm
# Method: Spectra were recorded on a JASCO J-710 spectropolarimeter using a thermostated 0.1 mm quartz cell. Thermal transition curves were obtained by recording the molar ellipticity ([θ]) in the range of 10-80° C. at λ=225 nm. The peptide and peptide-amphiphile concentrations were 0.5 mM in H2 O at 25° C.
# [2] = Surface pressure-area isotherms of monolayers at the air-water interface; type: physicochemical; conditions: for limiting surface area (monolayer reaches maximum surface pressure and collapses): 22° C., pure water subphase
# Method: All isotherms were obtained at 22° C. after spreading a peptide amphiphile solution in hexane-CHCl3 -methanol (5:4:1) over a pure water subphase. After 15 minutes, the monolayer was compressed laterally with constant speed for 10 mm/minute on a computerized KSV LB5000 Langmuir-Blodgett instrument and surface pressure detected using film balance with a platinum Wilhemy plate.
# [3] = test system: melanoma cell; conditions: cited from earlier work
"CD spectrum, positive ellipticity (poly-Pro II / triple-helix-like structure) [1]",limiting surface area (monolayer reaches maximum surface pressure and collapses) [2] [nm^2 /molecule],surface activity / formation of monolayers at the air-water interface [2],Structure (SMILES),melanoma cell adhesion and spreading [3]
no positive ellipticity,–,–,CCCCCCCCCCCCOC(=O)CC[C@H](NC(=O)CCC(=O)NCC(=O)N[C@H](C(=O)N[C@@H](CCCCN)C(=O)NCC(=O)N[C@@H](CC(=O)O)C(=O)N[C@@H](CCCCN)C(=O)NCC(=O)N[C@@H](CC(N)=O)C(=O)N1CCC[C@H]1C(=O)NCC(=O)N[C@@H](Cc1c[nH]c2ccccc12)C(=O)N1CCC[C@H]1C(=O)NCC(=O)N[C@@H](C)C(=O)N1CCC[C@H]1C(N)=O)C(C)C)C(=O)OCCCCCCCCCCCC [(C12)2 -Glu-C2-[IV-H1]] ({X3-Suc}-GVKGDKGNPGWPGAP-NH2),–
–,0.6,–,CCCCCCCCCCCCCCOC(=O)CC[C@H](NC(=O)CCC(=O)NCC(=O)N[C@H](C(=O)N[C@@H](CCCCN)C(=O)NCC(=O)N[C@@H](CC(=O)O)C(=O)N[C@@H](CCCCN)C(=O)NCC(=O)N[C@@H](CC(N)=O)C(=O)N1CCC[C@H]1C(=O)NCC(=O)N[C@@H](Cc1c[nH]c2ccccc12)C(=O)N1CCC[C@H]1C(=O)NCC(=O)N[C@@H](C)C(=O)N1CCC[C@H]1C(=O)NCC(=O)N1CCC[C@H]1C(=O)N1C[C@H](O)C[C@H]1C(=O)NCC(=O)N1CCC[C@H]1C(=O)N1C[C@H](O)C[C@H]1C(=O)NCC(=O)N1CCC[C@H]1C(=O)N1C[C@H](O)C[C@H]1C(=O)NCC(=O)N1CCC[C@H]1C(=O)N1C[C@H](O)C[C@H]1C(N)=O)C(C)C)C(=O)OCCCCCCCCCCCCCC [(C14)2 -Glu-C2 -[IV-H1]-(Gly-Pro-Hyp)4] ({X1-Suc}-GVKGDKGNPGWPGAPGP[Hyp]GP[Hyp]GP[Hyp]GP[Hyp]-NH2),–
–,0.6,–,CCCCCCCCCCCCCCCCOC(=O)CC[C@H](NC(=O)CCC(=O)NCC(=O)N1CCC[C@H]1C(=O)N1C[C@H](O)C[C@H]1C(=O)NCC(=O)N1CCC[C@H]1C(=O)N1C[C@H](O)C[C@H]1C(=O)NCC(=O)N1CCC[C@H]1C(=O)N1C[C@H](O)C[C@H]1C(=O)NCC(=O)N1CCC[C@H]1C(=O)N1C[C@H](O)C[C@H]1C(=O)NCC(=O)N[C@H](C(=O)N[C@@H](CCCCN)C(=O)NCC(=O)N[C@@H](CC(=O)O)C(=O)N[C@@H](CCCCN)C(=O)NCC(=O)N[C@@H](CC(N)=O)C(=O)N1CCC[C@H]1C(=O)NCC(=O)N[C@@H](Cc1c[nH]c2ccccc12)C(=O)N1CCC[C@H]1C(=O)NCC(=O)N[C@@H](C)C(=O)N1CCC[C@H]1C(N)=O)C(C)C)C(=O)OCCCCCCCCCCCCCCCC [(C16)2 -Glu-C2 -(Gly-Pro-Hyp)4 -[IV-H1]] ({X2-Suc}-GP[Hyp]GP[Hyp]GP[Hyp]GP[Hyp]GVKGDKGNPGWPGAP-NH2),–
did not show any positive ellipticity,–,not surface active,CC(C)[C@H](NC(=O)CN)C(=O)N[C@@H](CCCCN)C(=O)NCC(=O)N[C@@H](CC(=O)O)C(=O)N[C@@H](CCCCN)C(=O)NCC(=O)N[C@@H](CC(N)=O)C(=O)N1CCC[C@H]1C(=O)NCC(=O)N[C@@H](Cc1c[nH]c2ccccc12)C(=O)N1CCC[C@H]1C(=O)NCC(=O)N[C@@H](C)C(=O)N1CCC[C@H]1C(N)=O [[IV-H1]] (H-GVKGDKGNPGWPGAP-NH2),promote melanoma cell adhesion and spreading
